{"source": "ChEMBL document CHEMBL1129601", "about": "“Inhibitors of acyl-CoA: cholesterol O-acyl transferase (ACAT) as hypocholesterolemic agents. CI-1011: an acyl sulfamate with unique cholesterol-lowering activity in animals fed noncholesterol-supplemented diets” (J Med Chem, 1996)", "key": {"Rattus norvegicus [1]": {"test_system": "Rattus norvegicus", "assay": "Evaluated for %change in cholesterol fed rats for total cholesterol at the dose of 0.3 mg/kg determined by Chronic screen test", "format": "functional"}, "Rattus norvegicus [2]": {"test_system": "Rattus norvegicus", "assay": "Effect on the Cholesterol fed rats for non-HDL-C in rats at the dose of 0.01 mg/kg by Chroinc screen test; further: unit not given here", "format": "functional"}, "Rattus norvegicus [3]": {"test_system": "Rattus norvegicus", "assay": "Evaluated for %change in cholesterol fed rats for total cholesterol at the dose of 0.001 mg/kg determined by Chronic screen test", "format": "functional"}, "Rattus norvegicus [4]": {"test_system": "Rattus norvegicus", "assay": "Effect on the Normal, Chow fed rats for Plasma total triglyceride level in rats at the dose of 30 mg/kg", "format": "functional, organism-based", "parameters": "dose 30 mg/kg"}, "Rattus norvegicus [5]": {"test_system": "Rattus norvegicus", "assay": "Evaluated for %change in cholesterol fed rats for HDL-C at the dose of 0.1 mg/kg determined by Chronic screen test", "format": "functional"}, "Rattus norvegicus [6]": {"test_system": "Rattus norvegicus", "assay": "Evaluated for %change in cholesterol fed rats for HDL-C at the dose of 0.001 mg/kg determined by Chronic screen test", "format": "functional"}, "Rattus norvegicus [7]": {"test_system": "Rattus norvegicus", "assay": "Evaluated for %change in cholesterol fed rats for total cholesterol at the dose of 10 mg/kg determined by Chronic screen test", "format": "functional"}, "Oryctolagus cuniculus [8]": {"test_system": "Oryctolagus cuniculus", "assay": "Effect on Rabbits (Fed a Cholesterol-Free Casein Diet ) for plasma cholesterol at the dose of 3 mg/kg (pretreatment)", "format": "functional, organism-based", "parameters": "dose 3 mg/kg"}, "Rattus norvegicus [9]": {"test_system": "Rattus norvegicus", "assay": "Effect on the Cholesterol fed rats for HDL-C in rats at the dose of 1 mg/kg by Chroinc screen test; further: unit not given here", "format": "functional"}, "Rattus norvegicus [10]": {"test_system": "Rattus norvegicus", "assay": "Effect on the Cholesterol fed rats for HDL-C in rats at the dose of 10 mg/kg by Chroinc screen test", "format": "functional"}, "Rattus norvegicus [11]": {"test_system": "Rattus norvegicus", "assay": "Effect on the Cholesterol fed rats for total cholesterol level in rats at the dose of 0.001 mg/kg by Chroinc screen test", "format": "functional"}, "Rattus norvegicus [12]": {"test_system": "Rattus norvegicus", "assay": "Effect on the Cholesterol fed rats for total cholesterol level in rats at the dose of 0.03 mg/kg by Chroinc screen test; further: unit not given here", "format": "functional"}, "Rattus norvegicus [13]": {"test_system": "Rattus norvegicus", "assay": "Effect on the Cholesterol fed rats for HDL-C in rats at the dose of 0.001 mg/kg by Chroinc screen test; further: unit not given here", "format": "functional"}, "Rattus norvegicus [14]": {"test_system": "Rattus norvegicus", "assay": "Effect on the Normal, Chow fed rats for Plasma total triglyceride level in rats at the dose of 10 mg/kg", "format": "functional, organism-based", "parameters": "dose 10 mg/kg"}, "Rattus norvegicus [15]": {"test_system": "Rattus norvegicus", "assay": "Effect on the Cholesterol fed rats for non-HDL-C in rats at the dose of 0.1 mg/kg by Chroinc screen test", "format": "functional"}, "Rattus norvegicus [16]": {"test_system": "Rattus norvegicus", "assay": "Evaluated for %change in cholesterol fed rats for non-HDL-C at the dose of 0.001 mg/kg determined by Chronic screen test", "format": "functional"}, "Rattus norvegicus [17]": {"test_system": "Rattus norvegicus", "assay": "Evaluated for %change in cholesterol fed rats for non-HDL-C at the dose of 0.3 mg/kg determined by Chronic screen test", "format": "functional"}, "Oryctolagus cuniculus [18]": {"test_system": "Oryctolagus cuniculus", "assay": "Effect on Rabbits (Fed a Cholesterol-Free Casein Diet ) for plasma cholesterol at the dose of 1 mg/kg (post treatment)", "format": "functional, organism-based", "parameters": "dose 1 mg/kg"}, "Rattus norvegicus [19]": {"test_system": "Rattus norvegicus", "assay": "Evaluated for %change in Normal, Chow fed for rats Plasma total triglyceride plasma level in rats at the dose of 3 mg/kg", "format": "functional"}, "Rattus norvegicus [20]": {"test_system": "Rattus norvegicus", "assay": "Evaluated for %change in cholesterol fed rats for HDL-C at the dose of 0.3 mg/kg determined by Chronic screen test", "format": "functional"}, "Rattus norvegicus [21]": {"test_system": "Rattus norvegicus", "assay": "Effect on the Cholesterol fed rats for total cholesterol level in rats at the dose of 1 mg/kg by Chroinc screen test; further: unit not given here", "format": "functional"}, "Rattus norvegicus [22]": {"test_system": "Rattus norvegicus", "assay": "Effect on the Cholesterol fed rats for non-HDL-C in rats at the dose of 10 mg/kg by Chroinc screen test", "format": "functional"}, "Rattus norvegicus [23]": {"test_system": "Rattus norvegicus", "assay": "Effect on the Cholesterol fed rats for non-HDL-C in rats at the dose of 3 mg/kg by Chroinc screen test; further: unit not given here", "format": "functional"}, "Rattus norvegicus [24]": {"test_system": "Rattus norvegicus", "assay": "Evaluated for %change in cholesterol fed rats for HDL-C at the dose of 1 mg/kg determined by Chronic screen test", "format": "functional"}, "Rattus norvegicus [25]": {"test_system": "Rattus norvegicus", "assay": "Effect on the Normal, Chow fed rats for total cholesterol plasma level in rats at the dose of 30 mg/kg", "format": "functional, organism-based", "parameters": "dose 30 mg/kg"}}, "note": "Values joined by “and” are separate entries in the source; they are usually repeats but may differ in a detail not shown here. Identical values can stand only once."}
{"smiles": "CC(C)c1cc(C(C)C)c(CC(=O)NS(=O)(=O)Oc2c(C(C)C)cccc2C(C)C)c(C(C)C)c1", "note": "[AVASIMIBE]", "values": [{"measurement": "Change", "setting": "Rattus norvegicus [1]", "result": -60, "unit": "%"}, {"measurement": "Non-HDL-C", "setting": "Rattus norvegicus [2]", "result": 604}, {"measurement": "Change", "setting": "Rattus norvegicus [3]", "result": 3, "unit": "%"}, {"measurement": "Plasma TG", "setting": "Rattus norvegicus [4]", "result": 58, "unit": "mg/dL"}, {"measurement": "Change", "setting": "Rattus norvegicus [5]", "result": "17% and 7%"}, {"measurement": "Change", "setting": "Rattus norvegicus [6]", "result": -3, "unit": "%"}, {"measurement": "Change", "setting": "Rattus norvegicus [7]", "result": -69, "unit": "%"}, {"measurement": "Plasma cholesterol", "setting": "Oryctolagus cuniculus [8]", "result": 250, "unit": "mg/dL"}, {"measurement": "HDL-C", "setting": "Rattus norvegicus [9]", "result": 25}, {"measurement": "HDL-C", "setting": "Rattus norvegicus [10]", "result": 36}, {"measurement": "TC", "setting": "Rattus norvegicus [11]", "result": 551}, {"measurement": "TC", "setting": "Rattus norvegicus [12]", "result": 334}, {"measurement": "HDL-C", "setting": "Rattus norvegicus [13]", "result": 16}, {"measurement": "Plasma TG", "setting": "Rattus norvegicus [14]", "result": 75, "unit": "mg/dL"}, {"measurement": "Non-HDL-C", "setting": "Rattus norvegicus [15]", "result": "114 and 306"}, {"measurement": "Change", "setting": "Rattus norvegicus [16]", "result": 3, "unit": "%"}, {"measurement": "Change", "setting": "Rattus norvegicus [17]", "result": -66, "unit": "%"}, {"measurement": "Plasma cholesterol", "setting": "Oryctolagus cuniculus [18]", "result": 184, "unit": "mg/dL"}, {"measurement": "Change", "setting": "Rattus norvegicus [19]", "result": -44, "unit": "%"}, {"measurement": "Change", "setting": "Rattus norvegicus [20]", "result": 42, "unit": "%"}, {"measurement": "TC", "setting": "Rattus norvegicus [21]", "result": 86}, {"measurement": "Non-HDL-C", "setting": "Rattus norvegicus [22]", "result": 33}, {"measurement": "Non-HDL-C", "setting": "Rattus norvegicus [23]", "result": 59}, {"measurement": "Change", "setting": "Rattus norvegicus [24]", "result": 76, "unit": "%"}, {"measurement": "Plasma TC", "setting": "Rattus norvegicus [25]", "result": 41, "unit": "mg/dL"}]}
